Our source for the IC50 values is patent US9783488B2 (CHDI Foundation, Inc., priority 2013, dated 2017).

For assay [1], the system named is cellular histone deacetylase enzymatic activity in Jurkat E6-1 cells. The experiment in a line: Inhibition of cellular HDAC activity in Jurkat E6-1 cells, fluorogenic substrate Boc-Lys(Tfa)-AMC. It counts as cell-based. To be noted: Homo sapiens, read-out: Cell IC50. The text has this: Analysis of Inhibition of Cellular HDAC Activity with Class IIa Histone Deacetylase (HDAC) Inhibitors
The potency of Class IIa Histone Deacetylase (HDAC) inhibitors is quantified by measuring the cellular histone deacetylase enzymatic activity using the fluorogenic substrate, Boc-Lys(Tfa)-AMC. After penetration in Jurkat E6-1 cells, the substrate is deacetylated to Boc-Lys-AMC. After cell lysis and cleavage by trypsin, the fluorophore AMC is released from the deacetylated substrate only. The fluorescence of the sample is directly related to the histone deacetylase activity in the sample.
Jurkat E6.1 cell culture and plating. Jurkat E6.1 cells are cultured according to standard cell culture protocols in Jurkat E6.1 Growth Media (RPMI without phenol red, 10% FBS, 1 mM HEPES, and 1 mM Sodium Pyruvate). Jurkat E6.1 cells are counted using a Coulter Counter and resuspended in Jurkat E6.1 growth media at a concentration of 75,000 cells/35 μl. 35 μl or 75,000 cells is seeded into Greiner microtitre assay plates. The plates are then incubated at 37° C. and 5% CO2 while other assay components are being prepared.
Serially dilute HDAC inhibitor compounds. Serial dilutions of the HDAC inhibitors and control reference compound (1-(5-(3-((4-(1,3,4-oxadiazol-2-yl)phenoxy)methyl)-1,2,4-oxadiazol-5-yl)thiophen-2-yl)-2,2,2-trifluoroethanone) are made by first resuspending the lyophilized compound to a final concentration of 10 mM in […]. Stocks of 70 μl aliquots of the 10 mM compound in DMSO are prepared and stored at −20° C. From one stock aliquot of each compound to be tested and the reference compound, a 16-point serial dilution is prepared according to Table 1 using a 125 μl 16-channel Matrix multi-channel pipette.
2 μl (200×) of each diluted solution and each control (full activity: 100% DMSO alone or full inhibition 1 mM) is stamped into V-bottom polypropylene 384-well compound plates using either the Bravo, Janus, or 12.5 μl 16-channel Matrix multi-channel pipette. Each well with the 200× compound solution is diluted 1:20 by the addition of 38 μl Jurkat assay buffer+DMSO (9.5% DMSO, RPMI without phenol red, 0.09% FBS, 9 mM Hepes, and 0.9 mM Sodium Pyruvate equilibrated to r.t.)
Prepare 5× (500 μM) Boc-Lys(Tfa)-AMC substrate. 5× (500 μM) substrate is prepared just prior to the addition to the assay. The 5× substrate is prepared by diluting a 100 mM Boc-Lys(Tfa)-AMC in DMSO solution 1:200 by adding it drop-wise to Jurkat assay medium (RPMI without phenol red, 0.1% FBS, 10 mM Hepes, and 1 mM Sodium Pyruvate equilibrated to 37° C.) while vortexing at slow speed to prevent precipitation.
Prepare 3× Lysis Buffer. 10 mL of 3× lysis buffer is prepared with 8.8 mL of 3× stock lysis buffer (50 mM Tris-HCl, pH 8.0, 137 mM NaCl, 2.7 mM KCl, 1 mM MgCl2, 1% Nonidet P40 Substitute equilibrated to r.t.) and 1.2 mL of 3 mg/mL Trypsin equilibrated to r.t.
Assay. 5 μl of each solution of 1:20 diluted compound from above is transferred to the Greiner microtitre assay plates with 75,000 cells/well using the Bravo. Cells are then incubated for 2 hours at 37° C. and 5% CO2. The assay is then started by adding 10 μl of 5× (500 μM) substrate to the assay plate using either the Bravo or 16-channel Matrix multi-channel pipette. The cells are then incubated for 3 hours at 37° C. and 5% CO2. Next, 25 μl of 3× lysis buffer is added to each well using either the 125 μl 16 channel pipette or the Bravo. The assay plate is then incubated overnight (15-16 hours) at 37° C. and 5% CO2. The following day, the plates are shaken on an orbital shaker for 1 minute at 900 rpm. Finally the top read fluorescence (Excitation: 355 nm, Emission: 460 nm) is measured using PerkinElmer EnVision.

The target in assay [2] is human catalytic domain HDAC4 protein (amino acids 648-1032) (Homo sapiens (Human), UniProt P56524). Description: Inhibition of HDAC4 catalytic domain enzymatic activity, fluorogenic substrate Boc-Lys(Tfa)-AMC. To be noted: HDAC4 catalytic domain enzyme, read-out: Biochemical HDAC4 IC50. The text has this:
Analysis of Inhibition of HDAC4 with Class IIa Histone Deacetylase (HDAC) Inhibitors
The potency of Class IIa Histone Deacetylase (HDAC) inhibitors is quantified by measuring the Histone Deacetylase 4 (HDAC4) catalytic domain enzymatic activity using the fluorogenic substrate, Boc-Lys(Tfa)-AMC. The substrate is deacetylated to Boc-Lys-AMC by HDAC4. Cleavage by trypsin results in the release of the fluorophore AMC from the deacetylated substrate. The fluorescence of the sample is directly related to the histone deacetylase activity in the sample.
Serially dilute HDAC inhibitor compounds. […] Stocks of 6 μl aliquots of the 10 mM compound in DMSO are prepared and stored at […]. From one stock aliquot of each compound to be tested and the reference compound, a 16-point serial dilution is prepared according to Table 1 using a 125 μl 16-channel Matrix multi-channel pipette (Matrix Technologies Ltd).
2 μl (200×) of each diluted solution and each control (full activity: 100% DMSO alone or full inhibition 1 mM) is stamped into V-bottomed polypropylene 384-well compound plates using either the Bravo (384-well head from Agilent) or 12.5 μl 16-channel Matrix multi-channel pipette (Matrix Technologies Ltd).
Prepare HDAC4 catalytic domain enzyme (0.2 μg/mL).
Prepare 5× ([…]) Boc-Lys(Tfa)-AMC Substrate. 5× (50 μM) substrate is prepared just prior to the addition to the assay. A 1 mM substrate stock is made by diluting a 100 mM Boc-Lys(Tfa)-AMC in DMSO solution 1:100 by adding it drop-wise to assay buffer (equilibrated to r.t.) while vortexing at slow speed to prevent precipitation. The 5× substrate is prepared by diluting the 1 mM substrate solution 1:20 by adding it drop-wise to assay buffer (equilibrated to r.t.) while vortexing at slow speed to prevent precipitation.
Prepare 3× (30 μM) Developer/Stop Solution.
Assay. 5 μl of each solution of 1:20 diluted compound from above is transferred to a clear bottomed, black, 384-well assay plate using the Bravo or the Janus (384-well MDT head from Perkin Elmer). Using a 16-channel Matrix multi-channel pipette, 35 μl of the working solution of HDAC4 catalytic domain enzyme (0.2 μg/mL in assay buffer) is transferred to the assay plate. […] The assay plate is then shaken for two minutes on an orbital shaker at 900 rpm (rotations per minute). Next the plate is incubated for 15 minutes at 37° C. The reaction is stopped by adding 25 μl of 3× (3 μM) developer/stop solution to the assay plates using either the Bravo, Janus or a 16-channel Matrix multi-channel pipette. Assay plates are then shaken for 5 minutes on an orbital shaker at 1200 rpm. Next, the assay plates are incubated at 37° C. for 1 hour in a tissue culture incubator.

Each structure is given as a SMILES string.

Sequence of human catalytic domain HDAC4 protein (amino acids 648-1032) (P56524 648-1032): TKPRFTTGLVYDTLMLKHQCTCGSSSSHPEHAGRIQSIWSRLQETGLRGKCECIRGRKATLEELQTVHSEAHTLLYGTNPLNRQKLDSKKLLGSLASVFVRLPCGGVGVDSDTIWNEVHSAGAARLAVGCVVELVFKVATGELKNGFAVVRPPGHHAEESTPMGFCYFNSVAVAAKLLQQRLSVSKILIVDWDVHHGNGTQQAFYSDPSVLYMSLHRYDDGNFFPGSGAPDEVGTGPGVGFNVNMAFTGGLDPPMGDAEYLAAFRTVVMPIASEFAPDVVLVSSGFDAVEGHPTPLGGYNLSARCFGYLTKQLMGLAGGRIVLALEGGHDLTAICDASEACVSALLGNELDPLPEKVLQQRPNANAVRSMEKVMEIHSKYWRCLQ

As to `Cc1c(F)cccc1[C@]1(C(=O)NO)CC[C@@H](c2ccc3cnn(C)c3c2)C1` (relative stereo) [Example 56, (1S,3R*)-1-(3-fluoro-2-methylphenyl)-N-hydroxy-3-(1-methyl-1H-indazol-6-yl)cyclopentanecarboxamide], the IC50 (usually the concentration at which inhibition is half-maximal) is 230 nM in assay [1] and 140 nM in assay [2].
The matching figures for `Cc1c(F)cccc1[C@]1(C(=O)NO)CC[C@@H](c2ccn3ccnc3c2)C1` (relative stereo) [Example 57, (1S,3R*)-1-(3-fluoro-2-methylphenyl)-N-hydroxy-3-(imidazo[1,2-a]pyridin-7-yl)cyclopentanecarboxamide]: 180 nM and 98 nM.
The corresponding values for `Cc1c(F)cccc1[C@]1(C(=O)NO)CC[C@H](c2ccn3ccnc3c2)C1` (relative stereo) [Example 58, (1S,3S*)-1-(3-fluoro-2-methylphenyl)-N-hydroxy-3-(imidazo[1,2-a]pyridin-7-yl)cyclopentanecarboxamide] are 300 nM and 82 nM.
The corresponding values for `Cc1c(F)cccc1[C@]1(C(=O)NO)CC[C@@H](c2cccc3cnn(C)c23)C1` (relative stereo) [Example 60, (1S,3R*)-1-(3-fluoro-2-methylphenyl)-N-hydroxy-3-(1-methyl-1H-indazol-7-yl)cyclopentanecarboxamide] are 810 nM and 360 nM.
Regarding `Cc1c(F)cccc1[C@]1(C(=O)NO)CC[C@@H](c2ccc3cn[nH]c3c2F)C1` (relative stereo) [Example 61, (1S,3R*)-3-(7-fluoro-1H-indazol-6-yl)-1-(3-fluoro-2-methylphenyl)-N-hydroxycyclopentanecarboxamide], the IC50 in assay [1] came out at 81 nM; in assay [2], 73 nM.
In the case of `Cc1c(F)cccc1[C@]1(C(=O)NO)CC[C@@H](c2ccc3oc(C4CC4)nc3c2)C1` (relative stereo) [Example 62, (1S,3R*)-3-(2-cyclopropylbenzo[d]oxazol-5-yl)-1-(3-fluoro-2-methylphenyl)-N-hydroxycyclopentanecarboxamide], the IC50 in assay [1] came to 410 nM; in assay [2] it was 280 nM.
The matching figures for `Cc1c(F)cccc1[C@]1(C(=O)NO)CC[C@@H](c2ccc3c(cnn3C)c2)C1` (relative stereo) [Example 63, (1S,3R*)-1-(3-fluoro-2-methylphenyl)-N-hydroxy-3-(1-methyl-1H-indazol-5-yl)cyclopentanecarboxamide]: 140 nM and 110 nM.
The matching figures for `Cc1c(F)cccc1[C@]1(C(=O)NO)CC[C@H](c2ccc3c(cnn3C)c2)C1` (relative stereo) [Example 64, (1S,3S*)-1-(3-fluoro-2-methylphenyl)-N-hydroxy-3-(1-methyl-1H-indazol-5-yl)cyclopentanecarboxamide]: 220 nM and 100 nM.
For the compound `Cc1c(F)cccc1[C@]1(C(=O)NO)CC[C@@H](c2ccc3cn(C(F)F)nc3c2)C1` (relative stereo) [Example 65, (1S,3R*)-3-(2-(difluoromethyl)-2H-indazol-6-yl)-1-(3-fluoro-2-methylphenyl)-N-hydroxycyclopentanecarboxamide], the IC50 in assay [1] stood at 99 nM; in assay [2], 110 nM.
The corresponding values for `Cc1c(F)cccc1[C@]1(C(=O)NO)CC[C@H](c2ccc3cn(C(F)F)nc3c2)C1` (relative stereo) [Example 66, (1S,3S*)-3-(2-(difluoromethyl)-2H-indazol-6-yl)-1-(3-fluoro-2-methylphenyl)-N-hydroxycyclopentanecarboxamide] are 190 nM and 220 nM.
The matching figures for `Cc1c(F)cccc1[C@]1(C(=O)NO)CC[C@@H](c2ccc3c(F)nn(C)c3c2)C1` (relative stereo) [Example 67, (1S,3R*)-3-(3-fluoro-1-methyl-1H-indazol-6-yl)-1-(3-fluoro-2-methylphenyl)-N-hydroxycyclopentanecarboxamide]: 360 nM and 400 nM.
The matching figures for `Cc1c(F)cccc1[C@]1(C(=O)NO)CC[C@H](c2ccc3c(F)nn(C)c3c2)C1` (relative stereo) [Example 68, (1S,3S*)-3-(3-fluoro-1-methyl-1H-indazol-6-yl)-1-(3-fluoro-2-methylphenyl)-N-hydroxycyclopentanecarboxamide]: 210 nM and 320 nM.
Regarding `Cc1c(F)cccc1[C@]1(C(=O)NO)CC[C@@H](c2ccc3c(c2)ncn3C)C1` (relative stereo) [Example 69, (1S,3R*)-1-(3-fluoro-2-methylphenyl)-N-hydroxy-3-(1-methyl-1H-benzo[d]imidazol-5-yl)cyclopentanecarboxamide], the results for the IC50 in assay [1] and in assay [2] were 200 nM and 90 nM, respectively.
The matching figures for `Cc1c(F)cccc1[C@]1(C(=O)NO)CC[C@@H](c2ccc3ncn(C)c3c2)C1` (relative stereo) [Example 70, (1S,3R*)-1-(3-Fluoro-2-methylphenyl)-N-hydroxy-3-(1-methyl-1H-benzo[d]imidazol-6-yl)cyclopentanecarboxamide]: 130 nM and 110 nM.
As for `Cc1c(F)cccc1[C@]1(C(=O)NO)CC[C@H](c2ccc3ncn(C)c3c2)C1` (relative stereo) [Example 71, (1S,3S*)-1-(3-Fluoro-2-methylphenyl)-N-hydroxy-3-(1-methyl-1H-benzo[d]imidazol-6-yl)cyclopentanecarboxamide], the IC50 in assay [1] was found to be 110 nM; in assay [2] it was 59 nM.
